Assay [1] has as its system rats infected and not infected by Bacillus typhi murium. In kind it is in vivo, Wistar rats. The settings on record: rats infected or not by Bacillus typhi murium, consecutive week, 15 rats per group.
Assay [2] has as its system Bacillus cereus. Nature of the assay: Test Example 2: preventing formation of bacterial CGC in vitro (K-B method). In kind it is cell-based. The protocol:
(§1) E. coli (No. 33310, purchased from Chengdu Institute of Biological Products, the Ministry of Public Health) was used in the tests. Grid design was performed by using antibiotic with different concentrations and N-acetyl-D-glucosamine having an amount of from 10 mg to 300 mg. Streak plates were conducted separately, and K-B method was employed for drugs. Colonies at marginal part of drug inhibition zone were picked and were observed under microscope. If cell length was more than 50 μm and cell number was more than 5 in each visual field, it was deemed as CGC positive and was marked with “+”; while if cell length was not greater than 50 μm and cell number was within the range from 0 to 4 in each visual field, it was deemed as CGC negative and was marked with “−”. At this time, the ratio of two substances was called “effective ratio”.
(§2) Effects tests of compound preparation comprising N-acetyl-D-glucosamine and antibiotics for preventing the formation of bacterial CGC in vitro.
(§3) The tests were carried out in vitro, wherein gram-negative amphimicrodes, gram-negative anaerobes and gram-positive aerobes were separately coated on streak plates, test drugs and control drugs were separately dissolved with same volume of sterile water for injection, 10 μl of each drug was used for preparing drug-sensitive paper, K-B method was employed in the tests of drugs, and the inhibition situations of CGC formation were observed.

Assay [3] has as its system Bacillus proteus. The description is as above. In kind it is cell-based. The protocol:
as §1, §2, §3

Assay [4] has as its system Bacteroides fragilis. The description is as above. Type of assay: cell-based. Here is the method: as §1, §2, §3
The subject of assay [5] is Citro Bacter. Described as above. In kind it is cell-based. The protocol:
as §1, §2, §3

Assay [6] relates to Diphtheroid bacillus. The assay is described as above. Type of assay: cell-based. The protocol: as §1, §2, §3
The subject of assay [7] is E. coli. Described as above. In kind it is cell-based. Here is the method: as §1, §2, §3
The test system of assay [8] is Klebsiella. The description is as above. In kind it is cell-based. The protocol:
as §1, §2, §3

The subject of assay [9] is Listeria. Described as above. Type of assay: cell-based. Here is the method:
as §1, §2, §3

In assay [10] the test system is Nucleic Acid Bacter. The description is as above. Type of assay: cell-based. The protocol: as §1, §2, §3
Assay [11] concerns irritable bowel syndrome (IBS) caused by bacterial CGC. Briefly: Test Example 5: preventing irritable bowel syndrome (IBS) caused by bacterial CGC. Type of assay: in vivo, rats. The settings on record: for CGCs in the rat stools after one week of drug withdrawal / CGCs in the stools of the rats: rats, effective dosage for consecutive 10 days, 30 rats per group; for CGCs in the stools of the rats: stools observed during administration and within 1 week after drug withdrawal. An excerpt: On this basis, the rats were subjected to stimulations such as electric stimulation, intragastric administration with fructus zanthoxyli water, cold, constraint etc. in order to induce IBS, and the incidence rates of IBS of two groups were observed.

Where [12] appears, read: compound preparation N-acetyl-D-glucosamine (100 mg) and chloramphenicol (400 mg), control chloramphenicol (400 mg).
Where [13] appears, read: first of three values given respectively: electric stimulation.
[14] abbreviates: second of three values given respectively: intragastric administration with fructus zanthoxyli water.
Where [15] appears, read: third of three values given respectively: cold, constraint etc.
The mark [16] stands for this setting: compound preparation N-acetyl-D-glucosamine (100 mg) and lincomycin (400 mg), control lincomycin (400 mg).
Where [17] appears, read: compound preparation 100 mg N-acetyl-D-glucosamine + 400 mg norfloxacin, control norfloxacin same dose.

SMILES strings stand for the structures. Like-named read-outs stand apart in the source and are kept apart here.

For the compound `O=C(O)c1cn(C2CC2)c2cc(N3CCNCC3)c(F)cc2c1=O` [ciprofloxacin], the “positive rates of stool CGC and intestinal mucosa CGC” value (shortened to “positive rates”) in assay [1] (N-acetyl-D-glucosamine (100 mg)+ciprofloxacin (500 mg) vs only ciprofloxacin) is 100%.
With `O=C(N[C@H](CO)[C@H](O)c1ccc([N+](=O)[O-])cc1)C(Cl)Cl` [Chloramphenicol, chloramphenicol], the CGC formation entry is “+ (If cell length was more than 50 μm and cell number was more than 5 in each visual field, it was deemed as CGC positive and was marked with “+”)” in assay [2] (setting [12]); “+ (If cell length was more than 50 μm and cell number was more than 5 in each visual field, it was deemed as CGC positive and was marked with “+”)” in assay [3] (setting [12]); “+ (If cell length was more than 50 μm and cell number was more than 5 in each visual field, it was deemed as CGC positive and was marked with “+”)” in assay [4] (setting [12]); “+ (If cell length was more than 50 μm and cell number was more than 5 in each visual field, it was deemed as CGC positive and was marked with “+”)” in [5] (setting [12]); “+ (If cell length was more than 50 μm and cell number was more than 5 in each visual field, it was deemed as CGC positive and was marked with “+”)” in assay [6] (setting [12]); “+ (If cell length was more than 50 μm and cell number was more than 5 in each visual field, it was deemed as CGC positive and was marked with “+”)” in [7] (setting [12]). Further, the CGC formation result in assay [8] (setting [12]) was “+ (If cell length was more than 50 μm and cell number was more than 5 in each visual field, it was deemed as CGC positive and was marked with “+”)”; in assay [9] (setting [12]) it was “+ (If cell length was more than 50 μm and cell number was more than 5 in each visual field, it was deemed as CGC positive and was marked with “+”)”; in assay [10] (setting [12]) it was “+ (If cell length was more than 50 μm and cell number was more than 5 in each visual field, it was deemed as CGC positive and was marked with “+”)”. The “positive rates” value in assay [1] (N-acetyl-D-glucosamine (100 mg)+chloramphenical (400 mg) vs only chloramphenicol) is reported as 100%. Also, the “incidence rate of IBS” value in assay [11] (setting [13]), in [11] (setting [14]) and in assay [11] (setting [15]) was 33% throughout. The “CGCs in the rat stools after one week of drug withdrawal” value (from here on “CGCs in the rat stools after one week”) in [11] is listed as “still present”. The “CGCs in the stools of the rats” value in assay [11] is “a large amount of CGCs appeared”.
In the case of `CCC[C@@H]1C[C@@H](C(=O)N[C@@H]([C@H]2O[C@H](SC)[C@H](O)[C@@H](O)[C@H]2O)[C@@H](C)O)N(C)C1` [Lincomycin, lincomycin], the CGC formation result was “+ (If cell length was more than 50 μm and cell number was more than 5 in each visual field, it was deemed as CGC positive and was marked with “+”)” in assay [2] (setting [16]); “+ (If cell length was more than 50 μm and cell number was more than 5 in each visual field, it was deemed as CGC positive and was marked with “+”)” in assay [3] (setting [16]); “+ (If cell length was more than 50 μm and cell number was more than 5 in each visual field, it was deemed as CGC positive and was marked with “+”)” in [4] (setting [16]); “+ (If cell length was more than 50 μm and cell number was more than 5 in each visual field, it was deemed as CGC positive and was marked with “+”)” in assay [5] (setting [16]); “+ (If cell length was more than 50 μm and cell number was more than 5 in each visual field, it was deemed as CGC positive and was marked with “+”)” in assay [6] (setting [16]); “+ (If cell length was more than 50 μm and cell number was more than 5 in each visual field, it was deemed as CGC positive and was marked with “+”)” in assay [7] (setting [16]). Further, the CGC formation entry in assay [8] (setting [16]) is “+ (If cell length was more than 50 μm and cell number was more than 5 in each visual field, it was deemed as CGC positive and was marked with “+”)”; in [9] (setting [16]), “+ (If cell length was more than 50 μm and cell number was more than 5 in each visual field, it was deemed as CGC positive and was marked with “+”)”; in assay [10] (setting [16]), “+ (If cell length was more than 50 μm and cell number was more than 5 in each visual field, it was deemed as CGC positive and was marked with “+”)”. Besides, the “positive rates” value in assay [1] (N-acetyl-D-glucosamine (100 mg)+lincomycin (400 mg) vs only lincomycin) is given as 100%. For the same compound, the “incidence rate of IBS” value in assay [11] (setting [13]), in assay [11] (setting [14]) and in assay [11] (setting [15]) was 33% throughout. The “CGCs in the rat stools after one week” value in assay [11] is recorded as “still present”. The “CGCs in the stools of the rats” value in assay [11] is listed as “a large amount of CGCs appeared”.
`CCn1cc(C(=O)O)c(=O)c2cc(F)c(N3CCNCC3)cc21` [Norfloxacin, norfloxacin]: the CGC formation entry in [2] (setting [17]) was “+ (If cell length was more than 50 μm and cell number was more than 5 in each visual field, it was deemed as CGC positive and was marked with “+”)”; in assay [3] (setting [17]) it was “+ (If cell length was more than 50 μm and cell number was more than 5 in each visual field, it was deemed as CGC positive and was marked with “+”)”; in [4] (setting [17]), “+ (If cell length was more than 50 μm and cell number was more than 5 in each visual field, it was deemed as CGC positive and was marked with “+”)”; in assay [5] (setting [17]), “+ (If cell length was more than 50 μm and cell number was more than 5 in each visual field, it was deemed as CGC positive and was marked with “+”)”; in assay [6] (setting [17]), “+ (If cell length was more than 50 μm and cell number was more than 5 in each visual field, it was deemed as CGC positive and was marked with “+”)”; in assay [7] (setting [17]) it was “+ (If cell length was more than 50 μm and cell number was more than 5 in each visual field, it was deemed as CGC positive and was marked with “+”)”. For the same compound, the CGC formation result in [8] (setting [17]) is “+ (If cell length was more than 50 μm and cell number was more than 5 in each visual field, it was deemed as CGC positive and was marked with “+”)”; in [9] (setting [17]) it was “+ (If cell length was more than 50 μm and cell number was more than 5 in each visual field, it was deemed as CGC positive and was marked with “+”)”; in assay [10] (setting [17]), “+ (If cell length was more than 50 μm and cell number was more than 5 in each visual field, it was deemed as CGC positive and was marked with “+”)”.
For the compound `CO[C@@]1(NC(=O)Cc2cccs2)C(=O)N2C(C(=O)O)=C(COC(N)=O)CS[C@@H]21` [cefoxitin], the “positive rates” value in [1] (N-acetyl-D-glucosamine (100 mg)+cefoxitin (150 mg) vs only cefoxitin) was 100%. The “incidence rate of IBS” value in assay [11] (setting [13]), in assay [11] (setting [14]) and in assay [11] (setting [15]) was 33% throughout. Besides, the “CGCs in the rat stools after one week” value in assay [11] was “still present”. Also, the “CGCs in the stools of the rats” value in assay [11] is “a large amount of CGCs appeared”.

(Values after patent publication US20070191291A1, “Compound antibacterial drugs comprising n-acetyl-d-glucosamine” (priority 2003, published 2007).)
